This note sets out measurements from patent US12162890B2 (Novartis AG, priority 2015, dated 2024).

HEK293 cells with stable expression of the GRIN1 gene and tetracycline-inducible expression of the GRIN2B gene (NMDA receptor, NR2B), sequence (Q13224 27-1484, other chains not shown): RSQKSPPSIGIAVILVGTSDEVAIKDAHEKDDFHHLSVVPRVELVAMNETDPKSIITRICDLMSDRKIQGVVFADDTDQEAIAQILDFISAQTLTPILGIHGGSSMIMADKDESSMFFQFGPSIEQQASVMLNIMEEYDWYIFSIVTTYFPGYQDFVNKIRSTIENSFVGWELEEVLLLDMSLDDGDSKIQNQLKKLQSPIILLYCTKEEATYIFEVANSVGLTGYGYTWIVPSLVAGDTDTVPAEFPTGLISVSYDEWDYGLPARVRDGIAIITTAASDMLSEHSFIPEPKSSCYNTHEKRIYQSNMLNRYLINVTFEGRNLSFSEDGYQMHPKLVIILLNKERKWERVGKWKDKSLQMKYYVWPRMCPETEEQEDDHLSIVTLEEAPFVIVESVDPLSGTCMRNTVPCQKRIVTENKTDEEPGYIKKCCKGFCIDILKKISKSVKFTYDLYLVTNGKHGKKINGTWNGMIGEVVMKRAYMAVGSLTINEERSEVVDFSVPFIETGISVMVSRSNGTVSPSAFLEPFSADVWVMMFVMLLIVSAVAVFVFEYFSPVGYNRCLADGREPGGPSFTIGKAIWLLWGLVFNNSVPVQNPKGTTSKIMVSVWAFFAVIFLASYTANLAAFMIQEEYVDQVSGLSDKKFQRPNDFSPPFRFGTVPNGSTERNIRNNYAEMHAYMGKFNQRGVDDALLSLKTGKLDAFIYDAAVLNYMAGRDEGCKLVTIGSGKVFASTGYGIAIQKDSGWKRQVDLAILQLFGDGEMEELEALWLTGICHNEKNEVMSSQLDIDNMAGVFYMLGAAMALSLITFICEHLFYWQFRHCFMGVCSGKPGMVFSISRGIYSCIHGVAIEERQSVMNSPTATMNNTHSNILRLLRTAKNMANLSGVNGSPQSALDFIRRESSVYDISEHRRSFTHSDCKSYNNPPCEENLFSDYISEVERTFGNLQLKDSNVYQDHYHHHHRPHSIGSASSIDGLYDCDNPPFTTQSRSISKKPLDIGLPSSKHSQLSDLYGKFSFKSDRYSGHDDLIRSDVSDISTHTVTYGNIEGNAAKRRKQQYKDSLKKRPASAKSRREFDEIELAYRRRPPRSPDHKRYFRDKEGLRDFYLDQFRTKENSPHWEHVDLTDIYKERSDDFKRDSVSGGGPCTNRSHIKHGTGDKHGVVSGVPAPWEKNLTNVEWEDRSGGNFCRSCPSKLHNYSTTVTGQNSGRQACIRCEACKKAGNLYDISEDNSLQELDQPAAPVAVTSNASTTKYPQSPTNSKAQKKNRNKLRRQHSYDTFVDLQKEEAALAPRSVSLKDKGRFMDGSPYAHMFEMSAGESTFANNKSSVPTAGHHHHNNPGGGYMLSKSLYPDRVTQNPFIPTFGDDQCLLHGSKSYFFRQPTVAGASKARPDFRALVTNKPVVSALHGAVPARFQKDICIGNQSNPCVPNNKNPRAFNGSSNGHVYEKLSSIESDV

The experiment addresses HEK293 cells with stable expression of the GRIN1 gene and tetracycline-inducible expression of the GRIN2B gene (NMDA receptor, NR2B) (Homo sapiens, UniProt Q13224). In words: Fluo-8 Ca2+ flux assay: reversal of Ro 25-6981-mediated suppression of the Ca2+ response to co-agonist (glutamate/glycine). Also: test concentration or dose not given here. The format is cell-based. The conditions noted are these: reversal of the Ro 25-6981 suppression of the Ca2+ response to co-agonist (glutamate/glycine).
On to `O=C(Cn1cnc2ccn(-c3ccc(Cl)cc3)c2c1=O)N1CCCCC1` [Example 377, 5-(4-chlorophenyl)-3-(2-oxo-2-(piperidin-1-yl)ethyl)-3H-pyrrolo[3,2-d]pyrimidin-4(5H)-one], for which the “Response Recovered (%)” value amounted to 1%.

As to `O=C(Cn1cnc2ccn(-c3ccc(Cl)cc3)c2c1=O)N1CCCC1C(F)(F)F` (stereo not drawn) [Example 379, 5-(4-chlorophenyl)-3-(2-oxo-2-(2-(trifluoromethyl)pyrrolidin-1-yl)ethyl)-3H-pyrrolo[3,2-d]pyrimidin-4(5H)-one], the “Response Recovered (%)” value came out at 5%.

Turning to `O=C(Cn1cnc2snc(-c3ccc(Cl)cc3)c2c1=O)N1CCCC1` [Example 380, 3-(4-chlorophenyl)-5-(2-oxo-2-(pyrrolidin-1-yl)ethyl)isothiazolo[5,4-d]pyrimidin-4(5H)-one], the “Response Recovered (%)” value worked out at 6%.

In the case of `O=C(Cn1cnc2snc(-c3ccc(Cl)cc3)c2c1=O)N1CC(F)(F)C1` [Example 381, 3-(4-chlorophenyl)-5-(2-(3,3-difluoroazetidin-1-yl)-2-oxoethyl)isothiazolo[5,4-d]pyrimidin-4(5H)-one], the “Response Recovered (%)” value came to 2%.

In the case of `O=C(Cn1cnc2snc(-c3ccc(Cl)cc3)c2c1=O)N1CCCC1C(F)(F)F` (stereo not drawn) [Example 382, 3-(4-chlorophenyl)-5-(2-oxo-2-(2-(trifluoromethyl)pyrrolidin-1-yl)ethyl)isothiazolo[5,4-d]pyrimidin-4(5H)-one], the “Response Recovered (%)” value was 9%.

`O=C(Cn1cnc2onc(-c3ccc(Cl)cc3)c2c1=O)N1CCCC1` [Example 383, 3-(4-chlorophenyl)-5-(2-oxo-2-(pyrrolidin-1-yl)ethyl)isoxazolo[5,4-d]pyrimidin-4(5H)-one]: the “Response Recovered (%)” value was 1%.

Regarding `O=C(Cn1cnc2onc(-c3ccc(Cl)cc3)c2c1=O)N1CCCC1C(F)(F)F` (stereo not drawn) [Example 384, 3-(4-chlorophenyl)-5-{2-oxo-2-[2-(trifluoromethyl)pyrrolidin-1-yl]ethyl}-4H,5H-[1,2]oxazolo[5,4-d]pyrimidin-4-one], the “Response Recovered (%)” value turned out to be 2%.

On to `O=C(Cn1cnc2onc(-c3ccc(Cl)cc3)c2c1=O)N1CC(F)(F)C1` [Example 385, 3-(4-chlorophenyl)-5-(2-(3,3-difluoroazetidin-1-yl)-2-oxoethyl)isoxazolo[5,4-d]pyrimidin-4(5H)-one], for which the “Response Recovered (%)” value was 4%.

As for `O=C(Cn1cnc2onc(-c3ccc(Cl)cc3)c2c1=O)N1CCC(F)C1` (stereo not drawn) [Example 386, 3-(4-chlorophenyl)-5-(2-(3-fluoropyrrolidin-1-yl)-2-oxoethyl)isoxazolo[5,4-d]pyrimidin-4(5H)-one], the “Response Recovered (%)” value is given as 4%.

On to `O=C(Cn1cnc2occ(-c3ccc(Cl)cc3)c2c1=O)N1CCC(C(F)(F)F)C1` (stereo not drawn) [Example 387, 5-(4-chlorophenyl)-3-(2-oxo-2-(3-(trifluoromethyl)pyrrolidin-1-yl)ethyl)furo[2,3-d]pyrimidin-4(3H)-one], for which the “Response Recovered (%)” value is listed as 7%.

In the case of `O=C(Cn1cnc2occ(-c3ccc(Cl)cc3)c2c1=O)N1CCCC1` [Example 388, 5-(4-chlorophenyl)-3-(2-oxo-2-(pyrrolidin-1-yl)ethyl)furo[2,3-d]pyrimidin-4(3H)-one], the “Response Recovered (%)” value came to 8%.

`O=C(Cn1cnc2occ(-c3ccc(Cl)cc3)c2c1=O)N1CC(F)(F)C1` [Example 389, 5-(4-chlorophenyl)-3-(2-(3,3-difluoroazetidin-1-yl)-2-oxoethyl)furo[2,3-d]pyrimidin-4(3H)-one]: the “Response Recovered (%)” value was found to be 8%.

For `O=C(Cn1ccn2ccc(-c3ccc(F)c(C(F)(F)F)c3)c2c1=O)N1CCC(F)C1` (stereo not drawn) [Example 390, 8-(4-fluoro-3-(trifluoromethyl)phenyl)-2-(2-(3-fluoropyrrolidin-1-yl)-2-oxoethyl)pyrrolo[1,2-a]pyrazin-1(2H)-one], the “Response Recovered (%)” value is recorded as 51%.

Consider `O=C(Cn1ccn2ccc(-c3ccc(F)c(C(F)(F)F)c3)c2c1=O)N1CCCC1` [Example 391, 8-(4-fluoro-3-(trifluoromethyl)phenyl)-2-(2-oxo-2-(pyrrolidin-1-yl)ethyl)pyrrolo[1,2-a]pyrazin-1(2H)-one], for which the “Response Recovered (%)” value came to 77%.

Turning to `O=C(Cn1ccn2ccc(-c3ccc(F)c(Cl)c3)c2c1=O)N1CCCC1` [Example 392, 8-(3-chloro-4-fluorophenyl)-2-(2-oxo-2-(pyrrolidin-1-yl)ethyl)pyrrolo[1,2-a]pyrazin-1(2H)-one], the “Response Recovered (%)” value came to 118%.

In the case of `O=C(Cn1ccn2ccc(-c3ccc(F)c(Cl)c3)c2c1=O)N1CCC(F)C1` (stereo not drawn) [Example 393, 8-(3-chloro-4-fluorophenyl)-2-(2-(3-fluoropyrrolidin-1-yl)-2-oxoethyl)pyrrolo[1,2-a]pyrazin-1(2H)-one], the “Response Recovered (%)” value is listed as 49%.

On to `O=C(Cn1ccn2ccc(-c3ccc(Cl)c(Cl)c3)c2c1=O)N1CCCC1` [Example 394, 8-(3,4-dichlorophenyl)-2-(2-oxo-2-(pyrrolidin-1-yl)ethyl)pyrrolo[1,2-a]pyrazin-1(2H)-one], for which the “Response Recovered (%)” value is 62%.

`O=C(Cn1ccn2ccc(-c3ccc(Cl)c(Cl)c3)c2c1=O)N1CCC(F)C1` (stereo not drawn) [Example 395, 8-(3,4-dichlorophenyl)-2-(2-(3-fluoropyrrolidin-1-yl)-2-oxoethyl)pyrrolo[1,2-a]pyrazin-1(2H)-one]: the “Response Recovered (%)” value amounted to 58%.

In the case of `CC1(F)CN(C(=O)Cn2ccn3ccc(-c4ccc(Cl)c(Cl)c4)c3c2=O)C1` [Example 396, 8-(3,4-dichlorophenyl)-2-(2-(3-fluoro-3-methylazetidin-1-yl)-2-oxoethyl)pyrrolo[1,2-a]pyrazin-1(2H)-one], the “Response Recovered (%)” value stood at 140%.

Consider `CC1(F)CN(C(=O)Cn2ccn3ccc(-c4ccc(F)c(Cl)c4)c3c2=O)C1` [Example 397, 8-(3-chloro-4-fluorophenyl)-2-(2-(3-fluoro-3-methylazetidin-1-yl)-2-oxoethyl)pyrrolo[1,2-a]pyrazin-1(2H)-one], for which the “Response Recovered (%)” value stood at 140%.

As to `O=C(Cn1ccn2ccc(-c3ccc(F)c(Cl)c3)c2c1=O)N1CC(F)(C2CC2)C1` [Example 398, 8-(3-chloro-4-fluorophenyl)-2-(2-(3-cyclopropyl-3-fluoroazetidin-1-yl)-2-oxoethyl)pyrrolo[1,2-a]pyrazin-1(2H)-one], the “Response Recovered (%)” value is given as 43%.

For the compound `O=C(Cn1ccn2ccc(-c3ccc(F)c(Cl)c3)c2c1=O)N1CC(F)(c2ccccc2)C1` [Example 399, 8-(3-chloro-4-fluorophenyl)-2-(2-(3-fluoro-3-phenylazetidin-1-yl)-2-oxoethyl)pyrrolo[1,2-a]pyrazin-1(2H)-one], the “Response Recovered (%)” value stood at 1.5%.

`CCC1(F)CN(C(=O)Cn2ccn3ccc(-c4ccc(F)c(Cl)c4)c3c2=O)C1` [Example 400, 8-(3-chloro-4-fluorophenyl)-2-(2-(3-ethyl-3-fluoroazetidin-1-yl)-2-oxoethyl)pyrrolo[1,2-a]pyrazin-1(2H)-one]: the “Response Recovered (%)” value amounted to 97%.

For `CC1(F)CN(C(=O)Cn2ccn3ccc(-c4ccc(F)c(C(F)(F)F)c4)c3c2=O)C1` [Example 401, 8-(4-fluoro-3-(trifluoromethyl)phenyl)-2-(2-(3-fluoro-3-methylazetidin-1-yl)-2-oxoethyl)pyrrolo[1,2-a]pyrazin-1(2H)-one], the “Response Recovered (%)” value is recorded as 160%.
